Assay results from ChEMBL document CHEMBL1139909, “Safrole oxide is a useful tool for investigating the effect of apoptosis in vascular endothelial cells on neural stem cell survival and differentiation in vitro” (2007).
The source made the active and inactive calls. The rule behind the calls is not given here.

Experiments:
Neural stem cell = test: Induction of apoptosis in neural stem cells assessed as cell viability at 10 to 100 ug/mL by MTT assay; assay type: functional, cell-based; conditions: Mus musculus
Endothelial cell [1] = test: Induction of apoptosis in neural stem cells co-cultured with vascular endothelial cells assessed as neurites degeneration at 70 ug/mL after 10 hrs; assay type: functional, cell-based; conditions: Mus musculus
Endothelial cell [2] = test: Induction of necrosis in neural stem cells co-cultured with vascular endothelial cells assessed as LDH release at 70 ug/mL after 10 hrs relative to control; assay type: functional, cell-based; conditions: Mus musculus
Endothelial cell [3] = test: Induction of apoptosis in neural stem cells co-cultured with vascular endothelial cells assessed as inhibition of cell differentiation at 70 ug/mL after 10 hrs; assay type: functional, cell-based; conditions: Mus musculus
Endothelial cell [4] = test: Induction of apoptosis in neural stem cells co-cultured with vascular endothelial cells assessed as nuclear condensation at 70 ug/mL after 10 hrs; assay type: functional, cell-based; conditions: Mus musculus
Endothelial cell [5] = test: Induction of apoptosis in neural stem cells co-cultured with vascular endothelial cells assessed as DNA fragmentation at 70 ug/mL after 10 hrs; assay type: functional, cell-based; conditions: Mus musculus
[6] = Increase in apoptosis rate in neural stem cells co-cultured with vascular endothelial cells assessed as cell survival at 70 ug/mL after 10 hrs; assay type: functional; conditions: Mus musculus, read-out: Activity

c1cc2c(cc1CC1CO1)OCO2 (configuration not stated)
Activity (Neural stem cell): inactive | Activity (Endothelial cell [1]): Active | Activity (Endothelial cell [2]): inactive | Activity (Endothelial cell [3]): Active | Activity (Endothelial cell [4]): Active | Activity (Endothelial cell [5]): Active | viability at 70 µg/mL [6]: 92%
